Tests used:
Assay type in all cases: ADME, organism-based, Aqueous humor of eyeball
Conditions in all cases: in vivo
[1] = species: Homo sapiens; assay: Drug level in human aqueous humor sample measured on basis of intraday target compound concentration of 300 ng/ml by LC/MS method
[2] = species: Homo sapiens; assay: Drug level in human aqueous humor sample measured on basis of interday target compound concentration of 30 ng/ml by LC/MS method
[3] = species: Homo sapiens; assay: Drug level in human aqueous humor sample measured on basis of interday target compound concentration of 300 ng/ml by LC/MS method
[4] = species: Homo sapiens; assay: Drug level in human aqueous humor sample measured on basis of intraday target compound concentration of 4000 ng/ml by LC/MS method
[5] = species: Homo sapiens; assay: Drug level in human aqueous humor sample measured on basis of interday target compound concentration of 4000 ng/ml by LC/MS method
[6] = species: Homo sapiens; assay: Drug level in human aqueous humor sample measured on basis of intraday target compound concentration of 30 ng/ml by LC/MS method

**Q.** Which results are given for `CC[C@H](C)C[C@H](C)CCCCCCCCC(=O)N[C@H]1C[C@@H](O)[C@@H](NCCN)NC(=O)[C@@H]2[C@@H](O)CCN2C(=O)[C@H]([C@H](O)CCN)NC(=O)[C@H]([C@H](O)[C@@H](O)c2ccc(O)cc2)NC(=O)[C@@H]2C[C@@H](O)CN2C(=O)[C@H]([C@@H](C)O)NC1=O` [CASPOFUNGIN]?
**A.** Drug uptake [1]: 280 ng/mL; Drug uptake [2]: 31.4 ng/mL; Drug uptake [3]: 282 ng/mL; Drug uptake [4]: 3986 ng/mL; Drug uptake [5]: 3965 ng/mL; Drug uptake [6]: 26.9 ng/mL

From ChEMBL document CHEMBL1671730, “Rapid and sensitive liquid chromatography/mass spectrometry assay for caspofungin in human aqueous humor” (Antimicrob Agents Chemother, 2010)
